Results taken from article PMC8864165, “Functional Effects of ARV-1502 Analogs Against Bacterial Hsp70 and Implications for Antimicrobial Activity” (Frontiers in Chemistry, 2022).
In brackets after ≈: the same amount, converted by molar mass. Square brackets hold non-standard residues; d marks the D form. Peptide text beside a SMILES is read from it. * marks the point of attachment. 5FAM = O=C1OC2(c3ccc(O)cc3Oc3cc(O)ccc32)c2ccc(C(=O)*)cc21; Ac6c = NC1(C(=O)O)CCCCC1

Columns and labels:
[1] = biological target: T1, E. coli DnaK (Escherichia coli, UniProt P0A6Y8); test: ATPase activity assay (malachite green), DnaK alone; assay type: biochemical; settings: ARV-1502 concentration series, plateau
T1 construct: His6-tag with TEV site ([…]) (N, cleaved yes); made in house; host or cells: E. coli (DE3) Rosetta pLysS
T1 sequence (P0A6Y8 whole entry): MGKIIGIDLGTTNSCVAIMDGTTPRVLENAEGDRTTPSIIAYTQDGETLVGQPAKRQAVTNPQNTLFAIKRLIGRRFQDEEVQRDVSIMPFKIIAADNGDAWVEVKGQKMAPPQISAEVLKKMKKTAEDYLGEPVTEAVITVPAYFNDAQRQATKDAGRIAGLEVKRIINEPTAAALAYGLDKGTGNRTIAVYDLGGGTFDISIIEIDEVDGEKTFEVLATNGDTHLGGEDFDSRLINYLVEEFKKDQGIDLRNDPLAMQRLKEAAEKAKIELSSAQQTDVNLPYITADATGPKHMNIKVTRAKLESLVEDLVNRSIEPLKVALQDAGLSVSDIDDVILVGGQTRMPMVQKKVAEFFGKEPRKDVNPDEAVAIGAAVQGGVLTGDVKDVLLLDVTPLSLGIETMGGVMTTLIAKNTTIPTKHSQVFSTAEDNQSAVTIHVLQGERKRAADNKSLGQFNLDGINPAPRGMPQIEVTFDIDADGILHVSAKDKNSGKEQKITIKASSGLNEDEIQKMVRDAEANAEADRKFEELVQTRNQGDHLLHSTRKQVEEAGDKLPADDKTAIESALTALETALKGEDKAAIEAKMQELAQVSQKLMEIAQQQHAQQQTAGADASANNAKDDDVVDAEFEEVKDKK
Description: (§1) ATPase activity of E. coli and S. aureus chaperones was studied in the presence of an AMP using a 384-well plate colorimetric assay ([Chang et al., 2008]; [Zahn et al., 2013]). […] Each sample was prepared in triplicates on the same plate. The reaction was started by addition of ATP dissolved in assay buffer (5 µL, 4 mmol/L) and the plate centrifuged (500 × g, 2 min; Allegra™ 21R, Beckmann Coulter, Krefeld, Germany) before incubated (37°C, 2 h). The released phosphate was quantified using an external phosphate dilution series (10–200 µmol/L KH2PO4 in assay buffer) prepared on each plate and treated equally as the samples. The reaction was stopped by adding assay buffer (80 µL) to all samples except the phosphate dilution series. […] After 15 min, the absorbance was recorded at 620 nm on the […]™ microplate reader. […]
(§2) The impact of ARV-1502 and its analogs on the ATPase activity of DnaK was investigated in 384-well plates using the malachite green absorbance assay, which quantitates phosphate (Pi) cleaved from ATP confirming for example the ATPase activity of DnaK. The established assay allowed a robust and reproducible quantitation of phosphate from 10 to 150 µmol/L and was easy to handle (Supplementary Figure S3) providing the intended high-throughput screening. […]

[2] = biological target: T2, S. aureus DnaK (Staphylococcus aureus, UniProt P99110); test: as above; assay type: biochemical; settings: ARV-1502 concentration series, plateau
T2 construct: His6-tag with TEV site ([…]) (N, cleaved yes); made in house; host or cells: E. coli (DE3) Rosetta pLysS
T2 sequence (P99110 whole entry): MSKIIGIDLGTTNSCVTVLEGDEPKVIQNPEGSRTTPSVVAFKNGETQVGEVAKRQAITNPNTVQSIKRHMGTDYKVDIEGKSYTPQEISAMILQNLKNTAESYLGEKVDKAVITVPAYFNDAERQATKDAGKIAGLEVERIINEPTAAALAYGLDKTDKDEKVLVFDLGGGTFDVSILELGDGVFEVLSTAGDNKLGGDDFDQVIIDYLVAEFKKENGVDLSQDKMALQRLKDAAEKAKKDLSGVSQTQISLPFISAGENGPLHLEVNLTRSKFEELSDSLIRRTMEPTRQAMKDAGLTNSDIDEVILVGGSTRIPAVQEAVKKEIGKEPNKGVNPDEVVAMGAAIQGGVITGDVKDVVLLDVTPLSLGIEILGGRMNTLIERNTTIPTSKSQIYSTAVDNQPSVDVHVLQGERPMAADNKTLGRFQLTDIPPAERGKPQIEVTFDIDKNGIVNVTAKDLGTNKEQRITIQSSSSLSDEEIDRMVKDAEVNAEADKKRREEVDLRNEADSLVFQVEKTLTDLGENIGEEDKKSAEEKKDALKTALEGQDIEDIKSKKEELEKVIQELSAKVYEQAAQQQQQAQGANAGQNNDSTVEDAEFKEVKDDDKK
Description: as §1, §2

[3] = tested on: E. coli JW0013 ∆dnaK; settings: 25% MHB2, 37°C, 20 h
[4] = biological target: T3, E. coli DnaK/DnaJ/GrpE (Escherichia coli, UniProt P0A6Y8); test: Fluorescence polarization Kd with Cf-labeled peptide, full chaperone system; assay type: binding; settings: ratio of Kd
T3 construct: made in house; host or cells: E. coli (DE3) Rosetta pLysS
T3 sequence (P0A6Y8 whole entry): as the sequence (P0A6Y8 whole entry) above
Description: (§3) Dissociation (Kd) and inhibitory constants (Ki) were measured using a previously reported protocol with slight modifications ([Krizsan et al., 2015]; [Kolano et al., 2020]). Briefly, black 384-well plates (flat bottom, Greiner Bio-One GmbH, Frickenhausen, Germany) were blocked with 0.5% (w/v) casein in phosphate buffered saline (PBS; 10 mmol/L Na2HPO4, 0.2 mmol/L KH2PO4, 137 mmol/L NaCl, 2.7 mmol/L KCl, pH 7.4) containing 0.05% (w/v) Tween® 20 (PBST) at 4°C overnight and washed three times with PBST. […] The 5 (6)-carboxyfluorescein-labeled peptide was added (20 μL/well, 40 nmol/L), incubated (2 h, 28°C, dark), and the fluorescence polarization recorded at an excitation wavelength (λ ex) of 485 nm and an emission wavelength (λem) of 535 nm using a […] ™ microplate reader (Beckman Coulter, Krefeld, Germany). Ki values were determined using a twofold dilution series of unlabeled peptide (20 µL/well) and DnaK (10 µL/well). The plate was incubated at 28°C in the dark for 90 min before the Cf-labeled peptides were added (10 µL/well, 80 nmol/L). After a second incubation (90 min, 28°C), the fluorescence polarization was recorded (λ ex = 485 nm, λ em = 535 nm). Dissociation and inhibitory constants were calculated by fitting the data with a variable slope parameter [y = min + (max- min)/(1+(x/Kd) ^−Hill slope)] using SigmaPlot 13 (Systat Software Inc., San Jose, CA, United States).

[5] = biological target: T2, S. aureus DnaK; test: Fluorescence polarization Kd with Cf-labeled peptide; assay type: binding
Description: as §3

[6] = biological target: E. coli DnaJ (Escherichia coli, UniProt P08622); test: as above; settings: E. coli proteins, ratio of Kd
E. coli DnaJ, sequence (P08622 whole entry): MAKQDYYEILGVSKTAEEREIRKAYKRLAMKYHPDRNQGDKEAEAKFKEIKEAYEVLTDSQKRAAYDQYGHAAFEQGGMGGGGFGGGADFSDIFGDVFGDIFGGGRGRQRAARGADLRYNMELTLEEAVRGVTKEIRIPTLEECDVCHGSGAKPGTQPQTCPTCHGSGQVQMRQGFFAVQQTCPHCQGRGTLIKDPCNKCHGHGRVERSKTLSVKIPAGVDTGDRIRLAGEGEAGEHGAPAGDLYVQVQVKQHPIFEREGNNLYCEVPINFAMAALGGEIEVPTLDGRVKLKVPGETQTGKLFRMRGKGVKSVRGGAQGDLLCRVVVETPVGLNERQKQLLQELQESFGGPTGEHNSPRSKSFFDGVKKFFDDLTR
Description: as §3

[7] = biological target: E. coli GrpE (Escherichia coli, UniProt P09372); test: as above; settings: E. coli proteins, ratio of Kd
E. coli GrpE, sequence (P09372 whole entry): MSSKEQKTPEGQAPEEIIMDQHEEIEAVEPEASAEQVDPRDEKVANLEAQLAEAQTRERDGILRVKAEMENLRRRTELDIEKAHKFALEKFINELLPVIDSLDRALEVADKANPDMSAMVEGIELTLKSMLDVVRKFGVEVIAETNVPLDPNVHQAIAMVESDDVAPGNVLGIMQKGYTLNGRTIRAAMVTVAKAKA
Description: as §3

[8] = biological target: S. aureus DnaJ (Staphylococcus aureus, UniProt P63971); test: as above; settings: FP, * = upper plateau not reached, Kd only approximate
S. aureus DnaJ, sequence (P63971 whole entry): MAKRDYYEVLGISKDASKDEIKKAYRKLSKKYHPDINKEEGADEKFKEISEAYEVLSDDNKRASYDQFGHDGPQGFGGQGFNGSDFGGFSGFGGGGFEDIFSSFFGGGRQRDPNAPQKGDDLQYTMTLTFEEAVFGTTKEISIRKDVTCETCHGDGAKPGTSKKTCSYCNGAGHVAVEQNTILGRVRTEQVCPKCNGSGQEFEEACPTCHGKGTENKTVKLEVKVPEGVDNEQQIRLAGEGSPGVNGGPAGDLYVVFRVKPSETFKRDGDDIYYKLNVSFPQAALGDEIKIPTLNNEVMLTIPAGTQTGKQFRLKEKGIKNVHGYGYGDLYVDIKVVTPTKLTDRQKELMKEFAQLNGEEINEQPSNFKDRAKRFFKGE
Description: as §3

[9] = biological target: T1, E. coli DnaK; assay type: binding
Description: The plate was incubated (90 min, 28°C, dark) and Cf-ARV-1502 (80 nmol/L; 10 µL/well) added. […] Each peptide was screened in duplicate. Control samples either lacked the unlabeled peptide (maximum) or contained Cf-ARV-1502 in buffer (minimum).
The quality of the experimental set up was evaluated by the Z′ factor ([Zhang et al., 1999]) (Supplementary Table S2). […] The obtained FP-values were normalized to the FP-values determined for lead sequence ARV-1502.

[10] = tested on: E. coli BW25113; settings: 25% MHB2, 7.5 × 10^6 cfu/mL, 37°C, 20 h
Description: Minimal inhibitory concentrations (MICs) were determined using a liquid broth micro dilution assay in sterile 96-well plates (polystyrene F-bottom, Greiner Bio-One GmbH) and a total volume of 100 μL per well. […] Overnight cultures of bacteria, i.e., E. coli BW25113 or S. aureus DSM 6247, grown in 25% MHB2 were diluted 30-fold in 25% MHB2. After an incubation period of 4 h (37°C, 200 rpm), cells were diluted to 1.5 × 10^7 cfu/mL, based on a McFarland test, and 50 μL were added to each well (final concentration of 7.5 × 10^6 cfu/mL per well). The plates were incubated (37°C, 20 h) and the optical density was determined at 595 nm using the […]™ microplate reader. The MIC was defined as the lowest peptide concentration preventing visible bacterial growth.

[11] = biological target: T2, S. aureus DnaK; test: FP peptide binding screening against Cf-ARV-1502; settings: screening: DnaK 16 µmol/L, unlabeled peptide 35 µmol/L, duplicate, below 1 = better than ARV-1502

Structure (SMILES): CC(C)C[C@H](NC(=O)[C@H](Cc1ccc(O)cc1)NC(=O)[C@@H]1CCCN1C(=O)[C@H](CCCNC(=N)N)NC(=O)[C@@H]1CCCN1C(=O)[C@H](CCCCN)NC(=O)[C@H](CC(=O)O)NC(=O)[C@@H]1CCCN1C(=O)[C@H](CCCNC(=N)N)NC(=O)C1(N)CCCCC1)C(=O)N1CCC[C@H]1C(=O)N[C@@H](CCCNC(=N)N)C(=O)N1CCC[C@H]1C(=O)N[C@@H](CCCNC(=N)N)C(=O)N1CCC[C@H]1C(=O)N1CCC[C@H]1C(=O)N[C@@H](CCCNC(=N)N)C(=O)N1CCC[C@H]1C(=O)N[C@H](C(=O)N[C@@H](CCCNC(=N)N)C(N)=O)C(C)C [ARV-1502] (H-[Ac6c]RPDKPRPYLPRPRPPRPVR-NH2)
- increase of intrinsic ATPase activity of E. coli DnaK [1]: ~250%
- stimulation of intrinsic ATPase activity of S. aureus DnaK [2]: 50%
- MIC, E. coli JW0013 ∆dnaK [3]: 4 to 8 µg/mL

Structure (SMILES): CC(C)C[C@H](NC(=O)[C@H](Cc1ccc(O)cc1)NC(=O)[C@@H]1CCCN1C(=O)[C@H](CCCNC(=N)N)NC(=O)[C@@H]1CCCN1C(=O)[C@H](CCCCN)NC(=O)[C@H](CC(=O)O)NC(=O)[C@@H]1CCCN1C(=O)[C@H](CCCNC(=N)N)NC(=O)C1(NC(=O)c2ccc3c(c2)C(=O)OC32c3ccc(O)cc3Oc3cc(O)ccc32)CCCCC1)C(=O)N1CCC[C@H]1C(=O)N[C@@H](CCCNC(=N)N)C(=O)N1CCC[C@H]1C(=O)N[C@@H](CCCNC(=N)N)C(=O)N1CCC[C@H]1C(=O)N1CCC[C@H]1C(=O)N[C@@H](CCCNC(=N)N)C(=O)N1CCC[C@H]1C(=O)N[C@H](C(=O)N[C@@H](CCCNC(=N)N)C(N)=O)C(C)C [Cf-ARV-1502] (5FAM-[Ac6c]RPDKPRPYLPRPRPPRPVR-NH2)
- fold higher Kd for E. coli DnaK/DnaJ/GrpE-system than for DnaK alone [4]: 15 fold
- times weaker binding to S. aureus DnaK than to E. coli DnaK ([5]; ratio of Kd): around 100 times
- fold weaker binding to DnaJ than to DnaK [6]: ~150 fold
- fold weaker binding to GrpE than to DnaK [7]: ~1,000 fold
- Kd, S. aureus DnaJ [8]: no fit

Structure (SMILES): CC(C)C[C@H](NC(=O)[C@H](Cc1ccc(O)cc1)NC(=O)[C@@H]1CCCN1C(=O)[C@H](CCCNC(=N)N)NC(=O)[C@@H]1CCCN1C(=O)[C@H](CCCCN)NC(=O)[C@H](CCCCN)NC(=O)[C@@H]1CCCN1C(=O)[C@H](CCCNC(=N)N)NC(=O)C1(N)CCCCC1)C(=O)N1CCC[C@H]1C(=O)N[C@@H](CC(C)C)C(=O)N1CCC[C@H]1C(=O)N[C@@H](CCCNC(=N)N)C(=O)N1CCC[C@H]1C(=O)N1CCC[C@H]1C(=O)N[C@@H](CCCNC(=N)N)C(=O)N1CCC[C@H]1C(=O)N[C@H](C(=O)N[C@@H](CCCNC(=N)N)C(N)=O)C(C)C [compound 45] (H-[Ac6c]RPKKPRPYLPLPRPPRPVR-NH2)
- DnaK binding in the screening, in words ([9]; FP screening, DnaK variant not stated at the place): best binding
- MIC, E. coli BW25113 [10]: >128 µg/mL
- MIC, E. coli JW0013 ∆dnaK [3]: >128 µg/mL

Structure (SMILES): CC(C)C[C@H](NC(=O)[C@H](Cc1ccc(O)cc1)NC(=O)[C@@H]1CCCN1C(=O)[C@H](CCCNC(=N)N)NC(=O)[C@@H]1CCCN1C(=O)[C@H](Cc1ccccc1)NC(=O)[C@H](Cc1ccccc1)NC(=O)[C@@H]1CCCN1C(=O)[C@H](CCCNC(=N)N)NC(=O)C1(N)CCCCC1)C(=O)N1CCC[C@H]1C(=O)N[C@@H](CC(C)C)C(=O)N1CCC[C@H]1C(=O)N[C@@H](CCCNC(=N)N)C(=O)N1CCC[C@H]1C(=O)N1CCC[C@H]1C(=O)N[C@@H](CCCNC(=N)N)C(=O)N1CCC[C@H]1C(=O)N[C@H](C(=O)N[C@@H](CCCNC(=N)N)C(N)=O)C(C)C [peptide 102] (H-[Ac6c]RPFFPRPYLPLPRPPRPVR-NH2)
- fold lower Kd than lead structure ARV-1502, S. aureus DnaK ([5]; ratio of Kd of Cf-labeled peptides): 20 fold
- binding to E. coli DnaK, FP-value normalized to ARV-1502 [9]: best binders
- binding to S. aureus DnaK, FP-value normalized to ARV-1502 [11]: best binders
- MIC, E. coli JW0013 ∆dnaK [3]: 32 µg/mL (≈ 12.9 µM)
